Experimental data from PMC8279484 (Journal of Medicinal Chemistry, 2021).

Tests used:
THP-1-MF0 macrophage = assay: Phagocytosis of fluorescent E. coli bioparticles by THP-1-MF0 macrophages; format: cell-based, human; settings: for EC50: 30 min pretreatment, 2 h bioparticles, read-out: Potency EC50; for (Aggregate) Rel. PD Score / Potency Rel. Pot. / Single comp. score Rel Eff. / Single comp. score Rel. Pot.: relative to LXA4 (1)
Protocol: Mycoplasma-free THP-1 monocytes were grown in an RPMI 1640 (Gibco) medium containing 2 mM L-glutamine, 2.00 g/L sodium bicarbonate, and 2.00 g/L glucose. Then, 10% (v/v) heat-inactivated FBS (30 min at 56 °C) and Pen-Strep (100 U/mL to 100 μg/mL) were supplemented to the growth media.
Cell adherence was allowed for 1 h and 30 min at 37 °C/5% CO2. Cells were then treated for 30 min with controls and phagocytosis effectors for testing (vehicle, LXs, Rvs, or sLXms). Subsequently, media containing controls/effectors were vacuum-aspirated and replaced with a solution containing fluorescently prelabeled E. coli-derived bioparticles and cells were incubated in the dark for 2 h at 37 °C/5% CO2 to allow particle ingestion by monocytes/macrophages. After that, media containing bioparticles were vacuum-aspirated and replaced with a solution containing trypan blue and cells were incubated for 1 min at room temperature to allow quenching of unbound particles to ensure specificity of the fluorescent signal, deriving only from ingested particles (not shown). After aspiration of Trypan, the fluorescence reading was immediately performed at the following conditions: end point; reading from the bottom of the plate; Ex.480/Em.520 nm.

NF-κB = assay: LPS-induced NF-κB-driven luciferase gene reporter assay in THP-1 Lucia monocytes; format: cell-based, human; settings: for Rel. Slope: HS relative to LXA4 (1); for IC50: Homo sapiens, THP-1, read-out: Potency IC50; for IC50 / IC50 (range in words): LPS 50 ng/mL; for Potency Rel. Pot.: IC50 relative to LXA4 (1); for Efficacy Rel. Eff.: Imax relative to LXA4 (1); for reduction of LPS-induced NF-κB-driven luciferase activity: approximate extent; for (Single component) Rel. Score: Rel. Pot. / (Single component) Rel. Score: Rel. Sl.: score relative to LXA4 (1); for Slope HS (Hill–Slope): slope of concentration–response curve; for (Aggregate) Rel. PD Score: sum of efficacy, potency, slope scores relative to LXA4 (1)
Protocol: Mycoplasma-free THP-1-Lucia NF-κB cells were grown in an RPMI 1640 (Gibco) medium containing 2 mM L-glutamine, 1.50 g/L sodium bicarbonate, 4.50 g/L glucose, 10 mM N-(2-hydroxyethyl)piperazine-N′-ethanesulfonic acid (HEPES), and 1 mM sodium pyruvate. Then, 10% heat-inactivated fetal bovine serum (FBS) (30 min at 56 °C), 100 μg/mL Normocin, and Pen-Strep (50 U/mL to 50 μg/mL) were also added to the growth media. As THP-1-Lucia cells were resistant to Zeocin, the latter was used as a selective antibiotic (a high dose, i.e., 100 μg/mL, was alternated every 2 weeks with a low dose, i.e., 10 μg/mL).
LXA41 and all of the tested sLXms were dissolved in ethanol and further diluted in a culture medium (final ethanol concentration 0.1%; equivalent concentrations were used as the vehicle control). Prior to in vitro experiments, THP-1-Lucia NF-κB cells were harvested and plated at 1 × 10^5 cells/well on 96-well plates and left to settle in the incubator at 37 °C, 95% humidity, and 5% CO2, in 0.1% FBS-containing media, pretreated for 30 min with increasing doses of LXA41, sLXms (from 10^–12 to 10^–6 M), or appropriate controls, followed by stimulation with 50 ng/mL LPS for 24 h.
NFκB activity was monitored in the human THP-1 monocytic leukemia cell line containing a stably integrated NF-κB-inducible Lucia reporter construct (as previously reported).[21] When stimulated with LPS, the transcription factor NF-κB is activated, upregulating the synthesis of proinflammatory mediators, thus bringing about an inflammatory response. In these cells, NF-κB activation is linked to a […] luciferase gene and can be measured using luminescence.
Heat-killed listeria monocytogenes (HKLM) (10^8/mL) was used as a positive control.[28] The levels of NF-κB-induced Luciferase were then measured in a culture supernatant using QUANTI-Luc as the detection reagent, and measurements were taken on a bioluminescence reader.
After 24 h, the levels of NF-κB-induced Lucia were assayed in a cell culture supernatant using QUANTI-Luc, as a detection reagent, on a bioluminescence reader (Synergy HT, BioTek Instruments, Inc. Vermont). Aliquots of the supernatant were retained for subsequent cytokine and LDH assays. Cellular proteins were extracted with a radioimmunoprecipitation assay (RIPA) buffer (Thermo Fisher, Ireland), supplemented with protease inhibitors (Sigma-Aldrich, Ireland). Lysates were clarified by centrifugation (3200g, 10’, 4 °C) to remove cell debris, and the cell protein level was quantified by performing a bicinchoninic acid (BCA) assay (as per the manufacturer’s instructions) reading the protein absorbance at 570 nm, using a spectrophotometer (SPECTRAMAX M2, Molecular Devices (U.K.) Limited). A “relative luminescence unit” (RLU) was obtained using the average value of the lum/abs ratio of two replicates.
The “coding” of the heat-map indicates the arbitrary criteria to assign points to each single PD component (efficacy = Imax or Emax; potency = IC50 or EC50; slope = HS) to generate a final (aggregate) relative PD score. […] If a single PD component was equal to the reference level (x = 1), then the single-component relative score was arbitrarily set to 0 (gray). If a single PD component was smaller than the reference level (x < 1), then the single-component relative score was arbitrarily set to −1 (light red) or −2 (dark red). If the curve of a single PD component was best fitting to a flat line (x = 0), then the single-component relative score was arbitrarily set to −4 (purple) (Table S1).

THP-1 LUCIA monocytes [1] = assay: Intrinsic cytotoxicity: LDH release without LPS; format: cell-based, human; settings: for Intrinsic Toxicity Level: LDH-associated level of cytotoxicity (high / moderate / low); for Intrinsic Toxicity TC50 (pM): half-maximal intrinsic LDH-associated toxic activity, no LPS
Protocol: We investigated the potential cytotoxicity of all candidate sLXms by assaying LDH release.[50] The response to LPS was arbitrarily set to 100%, and values were expressed relative to this. As previously reported by others, LPS provokes LDH release.[51] […] Ultimately, untreated cells defined the spontaneous cell release thresholds.
Lactate dehydrogenase (LDH) was assayed in cell supernatants to investigate possible cytotoxicity of the lead compound. LDH is rapidly released into the culture medium after disruption of the plasma membrane.[67],[69] After 24 h of exposure to sLXms, vehicle, or controls, followed by LPS stimulation, as described above, THP-1-Lucia NF-κB-cell supernatants were collected and LDH was assayed. Cytotoxicity was evaluated relative to vehicle controls. Maximum releasable LDH was determined in cells lysed with 2% Triton-X-100 (Sigma-Aldrich, Ireland). LDH levels were assessed by reading the absorbance at 490 nm (protein) and 690 nm (background noise), using a spectrophotometer (SPECTRAMAX M2, Molecular Devices (U.K.) Limited).

THP-1 LUCIA monocytes [2] = assay: In vitro safety study: Safety index (Si), activity versus toxicity; format: cell-based, human; settings: for IC50: Homo sapiens, THP-1, highest IC50 among the LPS-challenged assays (NF-κB activity, cytokine, LDH release), read-out: Extrinsic Activity hIC50; for Safety Index TC50/IC50: ratio of intrinsic TC50 to extrinsic hIC50
Protocol: A postanalysis “safety study” was conducted on all QNX-sLXms. For each tested compound, we calculated an in vitro “Safety index” (Si) by relating its “anti-inflammatory half-maximal activity” (the highest dose among the IC50 of the extrinsic LPS-challenged phenotype: NF-κB activity, proinflammatory cytokine, and LDH release) to its intrinsic “toxicity” (expressed as the relative half-maximal LDH-associated cytotoxicity). The generated Si is potentially predictive of a translational “therapeutic” range: the higher the Si, the safer the molecule is. As summarized in Table S4, Si values from all tested compounds fall in a broad range (7–50).

C57bl/6 mice = assay: Murine carrageenan-induced paw edema; format: in vivo, mouse; settings: for % relative to carageenan-induced level: Veh = 100; for % relative to carageenan-induced level / % reduction relative to carageenan-induced level: (R)-6, (R)-17 2 μg/kg, Naproxen 50 mg/kg p.o.; for Paw swelling Index: Mean: n = 3
Protocol: Then, 50 μL of 1% carrageenan was injected with an equivalent volume of saline injected into the contralateral paw. Inflammation was presented as the difference in paw thickness over time using gauge (POCO 2T; Kroeplin, GmbH, Surrey, U.K.). Data are presented as mean ± SEM, n = 3 mice/treatment group.

Structure (SMILES) | (Aggregate) Rel. PD Score (THP-1-MF0 macrophage) | Potency Rel. Pot. (THP-1-MF0 macrophage) | Rel. Slope (NF-κB) | IC50 (NF-κB; 24 h) | Potency Rel. Pot. (NF-κB) | Efficacy Rel. Eff. (NF-κB) | reduction of LPS-induced NF-κB-driven luciferase activity (NF-κB; 1 pM–1 μM) | (Single component) Rel. Score: Rel. Pot. (NF-κB) | (Single component) Rel. Score: Rel. Sl. (NF-κB) | (Aggregate) Rel. PD Score (NF-κB) | Intrinsic Toxicity TC50 (pM) (THP-1 LUCIA monocytes [1]) | IC50 (THP-1 LUCIA monocytes [2]) | Safety Index TC50/IC50 (THP-1 LUCIA monocytes [2]) | also measured
CCCCC[C@H](O)[C@H](O)/C=C/C=C/C=C\C=C\[C@@H](O)CCCC(=O)O [LXB4] | -2 | 1 | – | – | – | – | – | – | – | – | – | – | – | EC50 (THP-1-MF0 macrophage): 5 nM; Single comp. score Rel Eff. (THP-1-MF0 macrophage): -2
CCC[C@H](O)c1nc2ccccc2nc1/C=C/[C@@H](O)[C@@H](O)CCCC(=O)OC [(S)-7, Methyl (5S,6R,E)-5,6-Dihydroxy-8-(3-((S)-1-hydroxybutyl)quinoxalin-2-yl)oct-7-enoate] | – | – | 0.60 | 1 nM | 0.1 | 1.50 | 30–35% | -2 (x < 0.1) | -1 (0.01 < x < 1) | -1 | 110,000 pM | 15 nM | 7 | IC50 (range in words) (NF-κB; 24 h): “nM” range; Slope HS (Hill–Slope) (NF-κB): -6; Intrinsic Toxicity Level (THP-1 LUCIA monocytes [1]): Low-Mod.
CCCCC[C@H](O)c1nc2ccccc2nc1/C=C/[C@H]1OC(C)(C)O[C@H]1CCCC(=O)OC [(S)-17, Methyl 4-((4S,5R)-5-((E)-2-(3-((S)-1-Hydroxyhexyl)quinoxalin-2-yl)vinyl)-2,2-dimethyl-1,3-dioxolan-4-yl)butanoate] | – | – | 0 | 0.003 nM | 24 | 0.79 | least effective | 2 (x ≥ 5) | -4 (x = 0) | -3 | 100 pM | 0.003 nM | 33 | Imax (%) (NF-κB; maximal % inhibition of LPS (50 ng/mL)-stimulated NF-κB luciferase activity, 30 min pretreatment, 24 h, 1 pM–1 μM): 19 ± 3%; Slope HS (Hill–Slope) (NF-κB): 0
CC[C@@H](O)/C=C/C=C\C[C@@H](O)/C=C/C=C/C=C\[C@@H](O)CCCC(=O)O [RvE1] | 0 | 5000 | – | – | – | – | – | – | – | – | – | – | – | EC50 (THP-1-MF0 macrophage): 0.001 nM; Single comp. score Rel Eff. (THP-1-MF0 macrophage): -2; Single comp. score Rel. Pot. (THP-1-MF0 macrophage): 2 (x ≥ 5)
CCC[C@@H](O)c1nc2ccccc2nc1/C=C/[C@@H](O)[C@@H](O)CCCC(=O)OC [(R)-7, Methyl (5S,6R,E)-5,6-Dihydroxy-8-(3-((R)-1-hydroxybutyl)quinoxalin-2-yl)oct-7-enoate] | – | – | 0.55 | 4 nM | 0.015 | 1.21 | 30–35% | -2 (x < 0.1) | -1 (0.01 < x < 1) | -2 | 2,000 pM | 0.1 nM | 20 | IC50 (range in words) (NF-κB; 24 h): “nM” range; Intrinsic Toxicity Level (THP-1 LUCIA monocytes [1]): Low-Mod.; intrinsic LDH release versus vehicle / spontaneous cell release (THP-1 LUCIA monocytes [1]; absence of LPS, 24 h, controls Dex 1 μM, 2 1 pM, 5 1 pM): lower than the vehicle
CC/C=C\C[C@H](O)/C=C/C=C\C=C\C=C\[C@@H](O)[C@@H](O)C/C=C\CCC(=O)O [RvD1] | 1 | 10000 | – | – | – | – | – | – | – | – | – | – | – | Single comp. score Rel. Pot. (THP-1-MF0 macrophage): 2 (x ≥ 5)
COc1ccc2cc([C@H](C)C(=O)O)ccc2c1 [Naproxen, reference compound] | – | – | – | – | – | – | – | – | – | – | – | – | – | % relative to carageenan-induced level (C57bl/6 mice; 4h): 118%; % relative to carageenan-induced level (C57bl/6 mice; 8h): 40%; % relative to carageenan-induced level (C57bl/6 mice; 24h): 55%; % reduction relative to carageenan-induced level (C57bl/6 mice; 48h): 60%; % relative to carageenan-induced level (C57bl/6 mice; 48h): 160%; % reduction relative to carageenan-induced level (C57bl/6 mice; 72h): 450%; % relative to carageenan-induced level (C57bl/6 mice; 72h): 550%; effect on inflammatory response (paw swelling), in words (C57bl/6 mice; (R)-6, (R)-17 2 μg/kg ip, Naproxen 50 mg/kg po): inflammation persisted after 72 h; Paw swelling Index: Mean (C57bl/6 mice; Time 4h, (R)-6, (R)-17 2 μg/kg ip, Naproxen 50 mg/kg po, 1% carrageenan): 0.08; Paw swelling Index: Mean (C57bl/6 mice; Time 8h, (R)-6, (R)-17 2 μg/kg ip, Naproxen 50 mg/kg po): 0.16; Paw swelling Index: Mean (C57bl/6 mice; Time 24h, (R)-6, (R)-17 2 μg/kg ip, Naproxen 50 mg/kg po): 0.48; Paw swelling Index: Mean (C57bl/6 mice; Time 48h, (R)-6, (R)-17 2 μg/kg ip, Naproxen 50 mg/kg po): 0.65; Paw swelling Index: Mean (C57bl/6 mice; Time 72h, (R)-6, (R)-17 2 μg/kg ip, Naproxen 50 mg/kg po): 0.55
